In patent US10221139B2, “Inhibitors of histone demethylases” (Gilead Sciences, Inc., priority 2012, dated 2019):

Assays:
Assay type in all cases: biochemical
PLU1 (KDM5B) = target: T1, PLU1 (KDM5B) (Homo sapiens, UniProt Q9UGL1); test: Histone lysine demethylase AlphaLISA assay, PLU1; conditions: substrate H3K4M3B
T1 construct: 1-809; host or cells: E. coli
T1 sequence (Q9UGL1 1-809): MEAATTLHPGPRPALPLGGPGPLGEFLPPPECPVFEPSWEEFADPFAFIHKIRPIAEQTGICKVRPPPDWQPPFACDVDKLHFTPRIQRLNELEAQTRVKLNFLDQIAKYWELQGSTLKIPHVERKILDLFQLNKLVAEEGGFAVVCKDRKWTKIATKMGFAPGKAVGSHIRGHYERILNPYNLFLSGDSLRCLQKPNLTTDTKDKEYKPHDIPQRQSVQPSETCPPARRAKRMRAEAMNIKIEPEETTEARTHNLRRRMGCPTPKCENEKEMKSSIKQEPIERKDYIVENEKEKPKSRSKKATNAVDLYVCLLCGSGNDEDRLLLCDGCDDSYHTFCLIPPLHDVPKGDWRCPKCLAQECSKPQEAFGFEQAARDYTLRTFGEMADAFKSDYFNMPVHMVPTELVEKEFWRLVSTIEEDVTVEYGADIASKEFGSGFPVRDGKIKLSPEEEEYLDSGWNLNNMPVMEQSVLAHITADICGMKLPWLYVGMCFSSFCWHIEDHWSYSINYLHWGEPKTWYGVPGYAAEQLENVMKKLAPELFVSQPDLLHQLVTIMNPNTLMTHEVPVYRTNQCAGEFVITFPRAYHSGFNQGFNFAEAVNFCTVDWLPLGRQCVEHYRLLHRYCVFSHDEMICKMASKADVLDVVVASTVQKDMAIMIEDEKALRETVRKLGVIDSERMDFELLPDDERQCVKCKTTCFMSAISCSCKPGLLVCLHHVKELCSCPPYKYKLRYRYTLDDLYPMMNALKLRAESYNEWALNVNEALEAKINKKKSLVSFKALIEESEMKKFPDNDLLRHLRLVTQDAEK
Summary of the method: (§1)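 IC50 values come from an AlphaLISA signal: acceptor beads incubated 60 min in the dark, then streptavidin donor beads, both at room temperature. Beforehand, enzyme and compound were preincubated 10 min and the substrate reaction ran at room temperature.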

GASC1 (KDM4C, JMJD2C) = target: T2, GASC1 (KDM4C, JMJD2C) (Homo sapiens, UniProt Q9H3R0); test: Histone lysine demethylase AlphaLISA assay, GASC1; conditions: substrate BK9M3
T2 construct: 1-349; host or cells: E. coli
T2 sequence (Q9H3R0 1-349): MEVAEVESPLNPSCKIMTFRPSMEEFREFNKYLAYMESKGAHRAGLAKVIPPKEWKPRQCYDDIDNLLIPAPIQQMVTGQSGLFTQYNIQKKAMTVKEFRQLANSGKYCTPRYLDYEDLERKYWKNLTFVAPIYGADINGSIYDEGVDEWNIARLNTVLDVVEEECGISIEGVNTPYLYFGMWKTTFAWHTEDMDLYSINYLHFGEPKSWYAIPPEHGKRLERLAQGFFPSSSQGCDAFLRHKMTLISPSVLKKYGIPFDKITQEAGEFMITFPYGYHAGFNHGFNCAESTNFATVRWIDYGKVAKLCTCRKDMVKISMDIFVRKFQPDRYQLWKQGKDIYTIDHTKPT
Summary of the method: as §1

UTX (KDM6A) = target: T3, UTX (KDM6A) (Homo sapiens, UniProt O15550); test: Histone lysine demethylase AlphaLISA assay, UTX; conditions: substrate BK27M3
T3 construct: 919-1401; host or cells: E. coli
T3 sequence (O15550 919-1401): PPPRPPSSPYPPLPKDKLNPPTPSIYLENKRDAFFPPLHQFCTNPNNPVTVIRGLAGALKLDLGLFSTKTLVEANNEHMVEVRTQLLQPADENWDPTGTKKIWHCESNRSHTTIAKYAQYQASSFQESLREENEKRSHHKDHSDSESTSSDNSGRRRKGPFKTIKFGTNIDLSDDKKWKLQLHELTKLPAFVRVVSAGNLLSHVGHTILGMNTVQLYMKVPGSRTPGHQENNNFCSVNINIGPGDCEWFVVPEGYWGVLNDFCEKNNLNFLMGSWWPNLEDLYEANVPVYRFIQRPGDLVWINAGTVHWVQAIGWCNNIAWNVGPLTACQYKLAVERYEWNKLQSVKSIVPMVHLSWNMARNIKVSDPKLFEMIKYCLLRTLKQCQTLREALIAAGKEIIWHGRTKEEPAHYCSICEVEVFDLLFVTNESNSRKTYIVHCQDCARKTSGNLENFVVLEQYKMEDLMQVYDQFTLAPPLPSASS
Summary of the method: as §1

FBXL10 (KDM2B) = target: T4, FBXL10 (KDM2B) (Homo sapiens, UniProt Q8NHM5); test: Histone lysine demethylase AlphaLISA assay, FBXL10; conditions: substrate BH3K36M2
T4 construct: 1-650; purchased BPS, Bioscience, US; host or cells: Bac (baculovirus)
T4 sequence (Q8NHM5 1-650): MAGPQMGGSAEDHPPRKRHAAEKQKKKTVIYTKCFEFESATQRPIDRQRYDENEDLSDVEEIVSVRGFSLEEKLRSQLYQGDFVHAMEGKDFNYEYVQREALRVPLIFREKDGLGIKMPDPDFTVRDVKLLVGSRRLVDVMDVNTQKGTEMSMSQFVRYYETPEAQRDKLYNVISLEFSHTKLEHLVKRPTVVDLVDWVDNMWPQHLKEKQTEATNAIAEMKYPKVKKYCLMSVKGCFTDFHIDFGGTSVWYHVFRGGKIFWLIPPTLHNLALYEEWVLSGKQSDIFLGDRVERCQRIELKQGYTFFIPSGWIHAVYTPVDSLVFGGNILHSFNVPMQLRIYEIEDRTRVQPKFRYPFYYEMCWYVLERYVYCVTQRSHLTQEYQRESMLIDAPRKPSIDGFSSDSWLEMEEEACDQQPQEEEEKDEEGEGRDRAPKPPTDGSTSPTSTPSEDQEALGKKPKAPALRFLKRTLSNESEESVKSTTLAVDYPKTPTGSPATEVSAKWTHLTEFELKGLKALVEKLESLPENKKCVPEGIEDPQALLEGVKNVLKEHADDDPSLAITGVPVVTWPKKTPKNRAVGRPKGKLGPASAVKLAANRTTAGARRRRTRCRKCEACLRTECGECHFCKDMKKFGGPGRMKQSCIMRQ
Description: (§2) Example 2: Histone Lysine Demethylase AlphaLISA Assays for IC50 Value Determination
(§3) Assays are performed analogously to the protocol described by Perkin Elmer (Roy et al. Perkin Elmer Technical Note: AlphaLISA #12, April 2011).
(§4) Enzymes are dissolved in enzyme buffer and incubated for 10 min before 5 μL is added to 5 μL 3% DMSO solutions of compounds in enzyme buffer. Incubated for another 10 minutes, before 5 μL substrate solution is added and the reaction mixture is incubated at room temperature for the given period. 10 μL acceptor beads, suspended at given dilutions in Epigenetic Buffer (Perkin Elmer AL008) from stock, are added and the suspension is incubated 60 minutes in the dark at room temperature, before 10 μL suspension (at the given dilutions in Epigenetic Buffer) of streptavidin donor beads (Perkin Elmer 6760002) in Epigenetic Buffer is added. After incubation at room temperature in the dark the plates are read. Reaction conditions are seen in Table 2b.

JARID1C (KDM5C) = target: T5, JARID1C (KDM5C) (Homo sapiens, UniProt P41229); test: Histone lysine demethylase AlphaLISA assay, JARID1C; conditions: substrate H3K4M3B
T5 construct: 2-1560; purchased BPS; host or cells: Bac (baculovirus)
T5 sequence (P41229 2-1560): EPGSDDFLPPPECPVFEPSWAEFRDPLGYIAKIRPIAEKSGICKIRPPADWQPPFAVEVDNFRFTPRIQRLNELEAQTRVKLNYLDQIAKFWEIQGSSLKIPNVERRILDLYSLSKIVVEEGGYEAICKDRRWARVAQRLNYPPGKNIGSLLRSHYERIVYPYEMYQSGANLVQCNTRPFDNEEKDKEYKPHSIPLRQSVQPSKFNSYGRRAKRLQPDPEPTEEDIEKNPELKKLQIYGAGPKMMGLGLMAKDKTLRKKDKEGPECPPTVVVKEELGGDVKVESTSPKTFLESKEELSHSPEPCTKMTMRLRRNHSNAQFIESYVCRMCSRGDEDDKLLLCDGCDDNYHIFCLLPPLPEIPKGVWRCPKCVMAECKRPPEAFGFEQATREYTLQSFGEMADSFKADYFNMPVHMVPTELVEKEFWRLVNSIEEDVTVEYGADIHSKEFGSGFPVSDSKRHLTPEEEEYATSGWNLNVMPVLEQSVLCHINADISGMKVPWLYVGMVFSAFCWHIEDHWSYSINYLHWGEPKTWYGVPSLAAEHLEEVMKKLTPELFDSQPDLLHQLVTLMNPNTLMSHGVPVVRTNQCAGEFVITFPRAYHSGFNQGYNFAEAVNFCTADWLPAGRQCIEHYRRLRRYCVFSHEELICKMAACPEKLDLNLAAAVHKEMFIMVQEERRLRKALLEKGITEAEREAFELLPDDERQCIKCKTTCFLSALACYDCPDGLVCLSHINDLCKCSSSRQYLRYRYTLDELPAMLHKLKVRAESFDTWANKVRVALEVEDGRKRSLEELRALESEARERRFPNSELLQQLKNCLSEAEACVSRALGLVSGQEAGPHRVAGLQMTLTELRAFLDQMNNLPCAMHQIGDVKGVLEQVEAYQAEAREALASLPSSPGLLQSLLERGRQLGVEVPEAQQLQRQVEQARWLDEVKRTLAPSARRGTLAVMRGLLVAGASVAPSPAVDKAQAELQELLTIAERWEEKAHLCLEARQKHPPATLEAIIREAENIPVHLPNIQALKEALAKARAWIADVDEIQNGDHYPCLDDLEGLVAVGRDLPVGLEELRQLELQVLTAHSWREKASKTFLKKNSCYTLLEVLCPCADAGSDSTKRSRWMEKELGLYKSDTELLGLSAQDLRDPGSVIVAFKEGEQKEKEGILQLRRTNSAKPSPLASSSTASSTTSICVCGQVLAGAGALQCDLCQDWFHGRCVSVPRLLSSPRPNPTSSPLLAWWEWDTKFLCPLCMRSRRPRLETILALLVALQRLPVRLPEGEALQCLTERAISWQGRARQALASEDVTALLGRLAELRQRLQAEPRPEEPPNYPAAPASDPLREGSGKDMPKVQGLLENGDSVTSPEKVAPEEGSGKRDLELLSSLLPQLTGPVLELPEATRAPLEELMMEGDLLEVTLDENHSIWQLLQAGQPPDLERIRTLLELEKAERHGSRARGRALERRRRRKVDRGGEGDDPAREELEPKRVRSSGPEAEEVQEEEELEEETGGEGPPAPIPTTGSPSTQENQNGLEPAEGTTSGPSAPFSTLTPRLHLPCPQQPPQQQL
Description: as §2, §3, §4

JMJD2A (KDM4A) = target: T6, JMJD2A (KDM4A) (Homo sapiens, UniProt O75164); test: Histone lysine demethylase AlphaLISA assay, JMJD2A; conditions: substrate BK9M3
T6 construct: 1-350; purchased BPS, Bioscience, US; host or cells: E. coli
T6 sequence (O75164 1-350): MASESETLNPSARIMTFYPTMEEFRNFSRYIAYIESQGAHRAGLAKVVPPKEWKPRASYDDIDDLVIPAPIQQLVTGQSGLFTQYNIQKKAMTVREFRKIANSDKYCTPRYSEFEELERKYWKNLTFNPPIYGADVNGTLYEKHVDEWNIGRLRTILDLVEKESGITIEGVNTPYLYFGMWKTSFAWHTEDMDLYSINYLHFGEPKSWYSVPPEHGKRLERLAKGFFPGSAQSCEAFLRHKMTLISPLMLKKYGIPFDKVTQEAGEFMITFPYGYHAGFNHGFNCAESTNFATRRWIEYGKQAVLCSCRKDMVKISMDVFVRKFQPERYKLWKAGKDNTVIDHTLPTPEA
Description: as §2, §3, §4

JMJD3 (KDM6B) = target: T7, JMJD3 (KDM6B) (Homo sapiens, UniProt O15054); test: Histone lysine demethylase AlphaLISA assay, JMJD3; conditions: substrate BK27M3
T7 construct: 1043-end; purchased BPS; host or cells: Bac (baculovirus)
T7 sequence (O15054 1043-1682 isoform O15054-1 limits assumed): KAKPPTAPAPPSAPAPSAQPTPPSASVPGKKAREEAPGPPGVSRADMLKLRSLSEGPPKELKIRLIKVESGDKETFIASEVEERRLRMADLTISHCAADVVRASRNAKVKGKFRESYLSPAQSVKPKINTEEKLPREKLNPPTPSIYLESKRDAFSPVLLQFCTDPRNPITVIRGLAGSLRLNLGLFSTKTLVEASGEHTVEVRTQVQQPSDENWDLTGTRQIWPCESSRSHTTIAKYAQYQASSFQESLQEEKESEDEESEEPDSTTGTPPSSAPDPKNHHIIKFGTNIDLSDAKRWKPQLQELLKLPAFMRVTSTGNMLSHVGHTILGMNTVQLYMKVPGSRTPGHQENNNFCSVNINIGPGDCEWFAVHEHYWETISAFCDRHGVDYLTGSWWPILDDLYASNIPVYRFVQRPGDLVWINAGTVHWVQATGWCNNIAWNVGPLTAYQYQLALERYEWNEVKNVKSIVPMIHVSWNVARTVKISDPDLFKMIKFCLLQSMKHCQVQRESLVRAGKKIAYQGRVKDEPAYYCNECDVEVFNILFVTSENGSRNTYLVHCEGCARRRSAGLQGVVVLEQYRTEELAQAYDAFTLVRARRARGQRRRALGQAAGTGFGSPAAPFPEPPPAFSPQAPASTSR
Description: as §2, §3, §4

JMJD2B (KDM4B) = target: T8, JMJD2B (KDM4B) (Homo sapiens, UniProt O94953); test: Histone lysine demethylase AlphaLISA assay, JMJD2B; conditions: substrate BK9M3, read-out: JMUD2B IC50
T8 construct: 2-500; purchased BPS; host or cells: Bac (baculovirus)
T8 sequence (O94953 2-500): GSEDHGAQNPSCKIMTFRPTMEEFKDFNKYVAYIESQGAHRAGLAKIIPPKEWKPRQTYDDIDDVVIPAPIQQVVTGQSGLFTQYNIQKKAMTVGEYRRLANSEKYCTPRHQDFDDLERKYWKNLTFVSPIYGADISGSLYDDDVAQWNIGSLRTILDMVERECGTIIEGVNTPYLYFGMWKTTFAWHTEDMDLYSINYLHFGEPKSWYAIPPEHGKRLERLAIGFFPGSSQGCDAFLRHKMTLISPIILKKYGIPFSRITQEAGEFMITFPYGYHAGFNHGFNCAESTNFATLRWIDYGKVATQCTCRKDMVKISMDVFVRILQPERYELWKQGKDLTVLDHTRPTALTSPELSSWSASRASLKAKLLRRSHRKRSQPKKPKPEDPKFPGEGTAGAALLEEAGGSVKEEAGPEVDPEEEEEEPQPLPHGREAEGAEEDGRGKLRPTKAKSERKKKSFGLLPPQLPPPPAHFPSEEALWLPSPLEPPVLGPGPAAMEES
Description: as §2, §3, §4

Structure (SMILES) | IC50 (PLU1 (KDM5B)) | IC50 (GASC1 (KDM4C, JMJD2C)) | IC50 (UTX (KDM6A)) | IC50 (FBXL10 (KDM2B)) | IC50 (JARID1C (KDM5C)) | IC50 (JMJD2A (KDM4A)) | IC50 (JMJD3 (KDM6B)) | IC50 (JMJD2B (KDM4B))
CCN(CCN(C)C)C(=O)CNCc1cc(C(=O)N(C)S(C)(=O)=O)ccn1 [#71, 2-{[({[2-(dimethylamino)ethyl](ethyl)carbamoyl}methyl)amino]methyl}-N-methanesulfonyl-N-methylpyridine-4-carboxamide] | < 100 nM | < 100 nM | ≥ 1000 nM | 100 to 1000 nM | – | – | – | –
Cn1c(CNCc2cc(C(=O)O)ccn2)nc2ccccc21 [#15, 2-({[(1-methyl-1H-1,3-benzodiazol-2-yl)methyl]amino}methyl)pyridine-4-carboxylic acid] | < 100 nM | 100 to 1000 nM | ≥ 1000 nM | – | < 100 nM | < 100 nM | ≥ 1000 nM | < 100 nM
CC(C)CN(CC(=O)N1CCCCC1)Cc1cc(C(=O)O)ccn1 [#86, 2-{[(2-methylpropyl)[2-oxo-2-(piperidin-1-yl)ethyl]amino]methyl}pyridine-4-carboxylic acid] | ≥ 1000 nM | ≥ 1000 nM | < 100 nM | 100 to 1000 nM | – | – | – | –
O=C(O)c1ccnc(CN(CC(=O)N2CCCCC2)Cc2ccccc2)c1 [#83, 2-({benzyl[2-oxo-2-(piperidin-1-yl)ethyl]amino}methyl)pyridine-4-carboxylic acid] | ≥ 1000 nM | ≥ 1000 nM | – | 100 to 1000 nM | – | – | – | –
CCN(CCN(C)C)C(=O)CNCc1cc(C(=O)OCC(F)F)ccn1 [#91, 2,2-difluoroethyl 2-{[({[2-(dimethylamino)ethyl](ethyl)carbamoyl}methyl)amino]methyl}pyridine-4-carboxylate] | < 100 nM | < 100 nM | < 100 nM | ≥ 1000 nM | – | – | – | –
CCN(CCN(C)C)C(=O)CNCc1cc(C(=O)OC)ccn1 [#70, methyl 2-{[({[2-(dimethylamino)ethyl](ethyl)carbamoyl}methyl)amino]methyl}pyridine-4-carboxylate] | < 100 nM | < 100 nM | < 100 nM | ≥ 1000 nM | – | – | – | –
CCCCCCCCCCCCCCCC(=O)OCC(COC(=O)CCCCCCCCCCCCCCC)OC(=O)c1ccnc(CNCC(=O)N(CC)CCN(C)C)c1 [#68, 2-(2-{[({[2-(dimethylamino)ethyl](ethyl)carbamoyl}methyl)amino]methyl}pyridine-4-carbonyloxy)-3-(hexadecanoyloxy)propyl hexadecanoate] | 100 to 1000 nM | 100 to 1000 nM | < 100 nM | ≥ 1000 nM | – | – | – | –
CC(C)C[C@H](NCc1cc(C(=O)O)ccn1)C(=O)NC(C)(C)C [#92, 2-({[(1S)-1-(tert-butylcarbamoyl)-3-methylbutyl]amino}methyl)pyridine-4-carboxylic acid] | ≥ 1000 nM | ≥ 1000 nM | 100 to 1000 nM | 100 to 1000 nM | – | – | – | –
CCCN(CC(=O)N1CCCCC1)Cc1cc(C(=O)O)ccn1 [#87, 2-({[2-oxo-2-(piperidin-1-yl)ethyl](propyl)amino}methyl)pyridine-4-carboxylic acid] | 100 to 1000 nM | ≥ 1000 nM | < 100 nM | 100 to 1000 nM | – | – | – | –
CC(C)N(CC(=O)N1CCCCC1)Cc1cc(C(=O)O)ccn1 [#88, 2-({[2-oxo-2-(piperidin-1-yl)ethyl](propan-2-yl)amino}methyl)pyridine-4-carboxylic acid] | ≥ 1000 nM | ≥ 1000 nM | < 100 nM | 100 to 1000 nM | – | – | – | –
CCCCN(CC(=O)N1CCCCC1)Cc1cc(C(=O)O)ccn1 [#82, 2-({butyl[2-oxo-2-(piperidin-1-yl)ethyl]amino}methyl)pyridine-4-carboxylic acid] | ≥ 1000 nM | ≥ 1000 nM | – | 100 to 1000 nM | – | – | – | –
O=C(O)c1ccnc(CN2CCC2)c1 [#79, 2-(azetidin-1-ylmethyl)pyridine-4-carboxylic acid] | ≥ 1000 nM | ≥ 1000 nM | – | ≥ 1000 nM | – | – | – | –
O=C(O)c1ccnc(CNCCCn2ccnc2)c1 [#1, 2-({[3-(1H-imidazol-1-yl)propyl]amino}methyl)pyridine-4-carboxylic acid] | – | 100 to 1000 nM | ≥ 1000 nM | ≥ 1000 nM | < 100 nM | < 100 nM | ≥ 1000 nM | –
CCN(CCN(C)C)C(=O)CNCc1cc(C(=O)OCCF)ccn1 [#90, 2-fluoroethyl 2-{[({[2-(dimethylamino)ethyl](ethyl)carbamoyl}methyl)amino]methyl}pyridine-4-carboxylate] | < 100 nM | 100 to 1000 nM | < 100 nM | ≥ 1000 nM | – | – | – | –
